Measurements reported in PubChem BioAssay AID2060510 (Molecular Pharmacology Branch, DTP, NCI, 2025).

Test system: 439559-082-T-J2-PDC spheroids viability
Assay: Anticancer human tumor 439559-082-T-J2-PDC patient-derived colon adenocarcinoma cell line growth inhibition [GQUAD]
Details: for IC50: curve of first compound; for viability, T/C: stronger effect = lower value
Outline: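 Tumor cells were grown as complex spheroids with HUVEC endothelial cells and mesenchymal stem cells as stroma. G-quadruplex stabilizers were combined with targeted agents over half-log dilutions from near the clinical Cmax, or from 10 microM.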
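Also: spheroids exposed to the agents for 7 days before readout.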
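For viability, T/C in this document: percent of luminescence signal in DMSO vehicle wells taken as 100% viability.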

Q: Which IC50 (second compound 0.0316 µM) does the source give for `C#Cc1c(F)ccc2cc(O)cc(-c3ncc4c(N5CC6CCC(C5)N6)nc(OCC56CCCN5CC(F)C6)nc4c3F)c12` (configuration not stated) + Cc1[nH]c2ccc(F)cc2c1-c1nc2c3cccnc3c3ncccc3c2[nH]1 here?
A: The IC50 was 1540 nM.

Q: What about the IC50 (second compound 0.1 µM) of the same compound?
A: The IC50 was 1620 nM.

Q: What about the IC50 (second compound 0.316 µM) of the same compound?
A: Its IC50 is 1530 nM.

Q: And the IC50 (second compound 1 µM)?
A: Its IC50 is 1610 nM.

Q: What about the IC50 (second compound 3.16 µM) of the same compound?
A: Its IC50 is 709 nM.

Q: What about the IC50 (second compound 10 µM) of the same compound?
A: Its IC50 is 1010 nM.

Q: What about the viability, T/C (second compound 0.0316 µM, first compound 0.0316 µM) of the same compound?
A: The viability, T/C was 97%.

Q: And the viability, T/C (second compound 0.0316 µM, first compound 0.1 µM)?
A: The viability, T/C was 104%.

Q: What about the viability, T/C (second compound 0.0316 µM, first compound 0.316 µM) of the same compound?
A: Its viability, T/C is 87.6%.

Q: And the viability, T/C (second compound 0.0316 µM, first compound 1 µM)?
A: Its viability, T/C is 71.9%.

Q: And the viability, T/C (second compound 0.0316 µM, first compound 3.16 µM)?
A: The viability, T/C was 13.7%.

Q: What about the viability, T/C (second compound 0.0316 µM, first compound 10 µM) of the same compound?
A: Its viability, T/C is 9.66%.

Q: And the viability, T/C (second compound 0.1 µM, first compound 0.0316 µM)?
A: Its viability, T/C is 112%.

Q: What about the viability, T/C (second compound 0.1 µM, first compound 0.1 µM) of the same compound?
A: The viability, T/C was 96.4%.

Q: What about the viability, T/C (second compound 0.1 µM, first compound 0.316 µM) of the same compound?
A: Its viability, T/C is 109%.

Q: What about the viability, T/C (second compound 0.1 µM, first compound 1 µM) of the same compound?
A: The viability, T/C was 79.5%.

Q: And the viability, T/C (second compound 0.1 µM, first compound 3.16 µM)?
A: The viability, T/C was 9.72%.

Q: What about the viability, T/C (second compound 0.1 µM, first compound 10 µM) of the same compound?
A: The viability, T/C was 7.59%.

Q: What about the viability, T/C (second compound 0.316 µM, first compound 0.0316 µM) of the same compound?
A: The viability, T/C was 105%.

Q: What about the viability, T/C (second compound 0.316 µM, first compound 0.1 µM) of the same compound?
A: The viability, T/C was 97.9%.

Q: And the viability, T/C (second compound 0.316 µM, first compound 0.316 µM)?
A: Its viability, T/C is 90.8%.

Q: And the viability, T/C (second compound 0.316 µM, first compound 1 µM)?
A: The viability, T/C was 74.2%.

Q: What about the viability, T/C (second compound 0.316 µM, first compound 3.16 µM) of the same compound?
A: The viability, T/C was 7.82%.

Q: And the viability, T/C (second compound 0.316 µM, first compound 10 µM)?
A: The viability, T/C was 7.52%.

Q: What about the viability, T/C (second compound 1 µM, first compound 0.0316 µM) of the same compound?
A: Its viability, T/C is 91.5%.

Q: What about the viability, T/C (second compound 1 µM, first compound 0.1 µM) of the same compound?
A: The viability, T/C was 91.9%.

Q: And the viability, T/C (second compound 1 µM, first compound 0.316 µM)?
A: Its viability, T/C is 101%.

Q: And the viability, T/C (second compound 1 µM, first compound 1 µM)?
A: Its viability, T/C is 79.9%.

Q: And the viability, T/C (second compound 1 µM, first compound 3.16 µM)?
A: Its viability, T/C is 8.22%.

Q: What about the viability, T/C (second compound 1 µM, first compound 10 µM) of the same compound?
A: The viability, T/C was 5.9%.

Q: And the viability, T/C (second compound 3.16 µM, first compound 0.0316 µM)?
A: Its viability, T/C is 72.2%.

Q: What about the viability, T/C (second compound 3.16 µM, first compound 0.1 µM) of the same compound?
A: The viability, T/C was 72.5%.

Q: What about the viability, T/C (second compound 3.16 µM, first compound 0.316 µM) of the same compound?
A: The viability, T/C was 70.8%.

Q: What about the viability, T/C (second compound 3.16 µM, first compound 1 µM) of the same compound?
A: Its viability, T/C is 41.1%.

Q: And the viability, T/C (second compound 3.16 µM, first compound 3.16 µM)?
A: The viability, T/C was 5.26%.

Q: What about the viability, T/C (second compound 3.16 µM, first compound 10 µM) of the same compound?
A: Its viability, T/C is 2.89%.

Q: And the viability, T/C (second compound 10 µM, first compound 0.0316 µM)?
A: Its viability, T/C is 85.2%.

Q: What about the viability, T/C (second compound 10 µM, first compound 0.1 µM) of the same compound?
A: Its viability, T/C is 69.3%.

Q: What about the viability, T/C (second compound 10 µM, first compound 0.316 µM) of the same compound?
A: The viability, T/C was 93%.

Q: What about the viability, T/C (second compound 10 µM, first compound 1 µM) of the same compound?
A: Its viability, T/C is 50.5%.

Q: And the viability, T/C (second compound 10 µM, first compound 3.16 µM)?
A: Its viability, T/C is 2.77%.

Q: What about the viability, T/C (second compound 10 µM, first compound 10 µM) of the same compound?
A: Its viability, T/C is 3.31%.
